Data as given in ChEMBL document CHEMBL5729210, “Benzodiazepine derivatives as RSV inhibitors” (2022).

Test: RSV-A Assay: The description is Japanese.

First: Cn1nccc1-c1nnc(NC2N=C(c3ccccc3)c3ccccc3NC2=O)o1 (stereo unspecified)
Second: COc1ccc(-c2nnc(NC3N=C(c4ccccc4)c4ccccc4NC3=O)o2)cn1 (stereo unspecified)
The EC50 of the first is higher: greater than 800 nM for the first, less than 400 nM for the second. The second is the more potent here.

O=C1Nc2ccccc2C(c2ccccc2)=NC1Nc1nnc(-c2ccccc2C2CCOCC2)o1 (stereo unspecified) and O=C1Nc2ccccc2C(c2ccccc2)=NC1Nc1nnc(-c2cccc(F)c2N2CCOCC2)o1 (stereo unspecified) cannot be ordered by EC50: greater than 800 nM for the first, greater than 800 nM for the second.

Going from O=C1Nc2ccccc2C(c2ccccc2)=NC1Nc1nnc(-c2ccc(-n3ccnc3)cc2)o1 (stereo unspecified) to O=C1Nc2ccccc2C(c2ccccc2)=NC1Nc1nnc(-c2cccc3ccccc23)o1 (stereo unspecified), the EC50 rises from less than 400 nM to greater than 800 nM. The first is the more potent here.

First: COC(=O)c1cc(Br)c(C2CC2)nc1Cl
Second: Cc1ccc2oc(NC3N=C(c4ccccc4)c4ccccc4NC3=O)nc2c1 (stereo unspecified)
The EC50 of the first is lower: less than 400 nM for the first, greater than 800 nM for the second. The first is the more potent here.

Compound COCC(C)(C)Nc1cc(C(F)(F)F)cnc1-c1nnc(N[C@H]2N=C(c3ccccc3)c3ccccc3NC2=O)o1 has an EC50 greater than 800 nM.

In the case of Cc1nc(-c2nnc(NC3N=C(c4ccccc4)c4ccccc4NC3=O)o2)ccc1C#N (stereo unspecified), the EC50 is reported as “in the range around 600 nM”.
For C[C@H]1CN(c2ncccc2-c2nnc(NC3N=C(c4ccccc4)c4ccccc4NC3=O)o2)CCO1 (stereo partly specified), the EC50 was “in the range around 600 nM”.
